Assay results published in US12103924B2, “Mitogen-activated protein kinase kinase (MEK) degradation compounds and methods of use” (Icahn School of Medicine at Mount Sinai, priority 2020, dated 2024).

Assays:
MEK1/2 = assay: Western blot of MEK1/2 protein levels in HT-29 cells; format: cell-based; settings: 24 h
Method: Compound concentrations are 0.3 μM, 1 μM and 3 μM.
The indicated protein levels were determined by Western blots.
The sample was centrifuged at 12,000 g for 10 min at 4° C. to get supernatant as cell lysate. Protein concentrations were quantified using Pierce rapid gold BCA protein assay kit.

HT-29 cells = assay: MTT cell viability assay, HT-29; format: cell-based; settings: Homo sapiens, 72 h, MTT assay, 3 d treatment, serial dilutions
Method: MTT assay was conducted for HT-29 cells after 3 d treatment with indicated compounds with serial dilutions.
MTT assay was conducted for HT-29 (A) and SK-MEL-28 (B) cells after 3 d treatment with DMSO or indicated compounds with serial dilutions. Clonogenic assay was performed in HT-29 (C) and SK-MEL-28 (D) cells for 14 d treatment with DMSO or indicated compounds with 10, 30 and 100 nM, in duplicate, respectively. Cells were then stained by crystal violet.
Cells (2000 cells per well) were seeded into 96-well microplates. After 20 h, cells were treated with 0.1% DMSO or indicated serial dilutions of compounds in duplicate or triplicate for 3 days. Cell viability was tested using MTT (M6494, Thermo Fisher Scientific) or WST-8 reagent (CK04, Dojindo). Briefly, 12 mM MTT was prepared in PBS or WST-8 reagent was warmed up to room temperature. 20 μL MTT or CCK-8 was then added to each well and the plates were kept in incubator at 37° C. for 3 h in the dark. For the WST-8 assay, signal was obtained after the incubation. For the MTT assay, cell medium was replaced with 200 μL of DMSO after the incubation, and then cell plates were kept at 37° C. for another 30 min. Absorbance signals for MTT and WST-8 were read at 540 nm and 450 nm respectively, with 690 nm as reference performed with Infinite F PLEX plate reader (TECAN, Morrisville, NC, USA). GI50 values were analyzed using GraphPad Prism 8 from the data of at least three independent experiments.
HT-29 or SK-MEL-28 cells (300 cells per well) were seeded in 12-well plates. After 20 h, cells were treated with DMSO or indicated concentrations of compounds in duplicate for two weeks. Medium containing indicated compounds was changed every 3 days. Cells were then fixed and stained with the solution containing 6% (v/v) glutaraldehyde (G5882, Sigma-Aldrich) and 0.5% (w/v) crystal violet for 1 h. To remove the background color, the plates with stained cells were immersed in running water until clear colonies were observed. The plates were dried at RT. The staining images were obtained with Epson Perfection V600 Photo.

[1] = HT-29 cells, 0.3 μM, 1 μM and 3 μM, western blot normalized with α-tubulin

Compound | GI50 (HT-29 cells) | MEK1 and MEK2 protein levels (MEK1/2; [1]) | MEK1 and MEK2 protein levels (MEK1/2; HT-29 cells, 0.1, 0.3, or 1 μM)
Cc1ncsc1-c1ccc(CNC(=O)[C@@H]2C[C@@H](O)CN2C(=O)[C@@H](NC(=O)CCCCCCNCCCONC(=O)c2ccc(F)c(F)c2Nc2ccc(I)cc2F)C(C)(C)C)cc1 [CPD-001, (2S,4R)-1-((S)-16-(tert-Butyl)-1-(3,4-difluoro-2-((2-fluoro-4-iodophenyl)amino)phenyl)-1,14-dioxo-3-oxa-2,7,15-triazaheptadecan-17-oyl)-4-hydroxy-N-(4-(4-methylthiazol-5-yl)benzyl)pyrrolidine-2-carboxamide] | 1.4 ± 0.2 µM | reduced | –
Cc1ncsc1-c1ccc(CNC(=O)[C@@H]2C[C@@H](O)CN2C(=O)[C@@H](NC(=O)CCCCCCCCCCNCCCONC(=O)c2ccc(F)c(F)c2Nc2ccc(I)cc2F)C(C)(C)C)cc1 [CPD-014, (2S,4R)-1-((S)-20-(tert-butyl)-1-(3,4-difluoro-2-((2-fluoro-4-iodophenyl)amino)phenyl)-1,18-dioxo-3-oxa-2,7,19-triazahenicosan-21-oyl)-4-hydroxy-N-(4-(4-methylthiazol-5-yl)benzyl)pyrrolidine-2-carboxamide] | 0.4 ± 0.2 µM | reduced | –
Cc1ncsc1-c1ccc(CNC(=O)[C@@H]2C[C@@H](O)CN2C(=O)[C@@H](NC(=O)COCCOCCOCCNCCCONC(=O)c2ccc(F)c(F)c2Nc2ccc(I)cc2F)C(C)(C)C)cc1 [CPD-015, (2S,4R)-1-((S)-20-(tert-butyl)-1-(3,4-difluoro-2-((2-fluoro-4-iodophenyl)amino)phenyl)-1,18-dioxo-3,10,13,16-tetraoxa-2,7,19-triazahenicosan-21-oyl)-4-hydroxy-N-(4-(4-methylthiazol-5-yl)benzyl)pyrrolidine-2-carboxamide] | 1.3 ± 0.1 µM | reduced | –
O=C1CCC(N2C(=O)c3cccc(NCCOCCNCCCONC(=O)c4ccc(F)c(F)c4Nc4ccc(I)cc4F)c3C2=O)C(=O)N1 (centres unmarked) [CPD-019, N-(3-((2-(2-((2-(2,6-dioxopiperidin-3-yl)-1,3-dioxoisoindolin-4-yl)amino)ethoxy)ethyl)amino)propoxy)-3,4-difluoro-2-((2-fluoro-4-iodophenyl)amino)benzamide] | 1.2 ± 0.2 µM | not | –
O=C1CCC(N2C(=O)c3cccc(NCCNCCCONC(=O)c4ccc(F)c(F)c4Nc4ccc(I)cc4F)c3C2=O)C(=O)N1 (centres unmarked) [CPD-024, N-(3-((2-((2-(2,6-dioxopiperidin-3-yl)-1,3-dioxoisoindolin-4-yl)amino)ethyl)amino)propoxy)-3,4-difluoro-2-((2-fluoro-4-iodophenyl)amino)benzamide] | 0.4 ± 0.01 µM | not | –
O=C1CCC(N2C(=O)c3cccc(NCCCCCCCNCCCONC(=O)c4ccc(F)c(F)c4Nc4ccc(I)cc4F)c3C2=O)C(=O)N1 (centres unmarked) [CPD-029, N-(3-((7-((2-(2,6-dioxopiperidin-3-yl)-1,3-dioxoisoindolin-4-yl)amino)heptyl)amino)propoxy)-3,4-difluoro-2-((2-fluoro-4-iodophenyl)amino)benzamide] | 4.5 ± 1.9 µM | – | –
O=C1CCC(N2C(=O)c3cccc(NCCCCCCCCNCCCONC(=O)c4ccc(F)c(F)c4Nc4ccc(I)cc4F)c3C2=O)C(=O)N1 (centres unmarked) [CPD-030, N-(3-((8-((2-(2,6-dioxopiperidin-3-yl)-1,3-dioxoisoindolin-4-yl)amino)octyl)amino)propoxy)-3,4-difluoro-2-((2-fluoro-4-iodophenyl)amino)benzamide] | 3.5 ± 0.9 µM | – | –
Cc1ncsc1-c1ccc([C@H](C)NC(=O)[C@@H]2C[C@@H](O)CN2C(=O)[C@@H](NC(=O)CCCCCCCCCCCNCCCONC(=O)c2ccc(F)c(F)c2Nc2ccc(I)cc2F)C(C)(C)C)cc1 [CPD-033, (2S,4R)-1-((S)-21-(tert-butyl)-1-(3,4-difluoro-2-((2-fluoro-4-iodophenyl)amino)phenyl)-1,19-dioxo-3-oxa-2,7,20-triazadocosan-22-oyl)-4-hydroxy-N—((S)-1-(4-(4-methylthiazol-5-yl)phenyl)ethyl)pyrrolidine-2-carboxamide] | 0.099 ± 0.008 µM | – | –
Cc1ncsc1-c1ccc([C@H](C)NC(=O)[C@@H]2C[C@@H](O)CN2C(=O)[C@@H](NC(=O)CCCCCCCCCNCCCCONC(=O)c2ccc(F)c(F)c2Nc2ccc(I)cc2F)C(C)(C)C)cc1 [CPD-035, (2S,4R)-1-((S)-20-(tert-butyl)-1-(3,4-difluoro-2-((2-fluoro-4-iodophenyl)amino)phenyl)-1,18-dioxo-3-oxa-2,8,19-triazahenicosan-21-oyl)-4-hydroxy-N—((S)-1-(4-(4-methylthiazol-5-yl)phenyl)ethyl)pyrrolidine-2-carboxamide] | 0.055 ± 0.005 µM | – | –
Cc1ncsc1-c1ccc([C@H](C)NC(=O)[C@@H]2C[C@@H](O)CN2C(=O)[C@@H](NC(=O)CCCCCCCCCNCCCONC(=O)c2ccc(F)c(F)c2Nc2ccc(I)cc2F)C(C)(C)C)cc1 [CPD-036, (2S,4R)-1-((S)-19-(tert-butyl)-1-(3,4-difluoro-2-((2-fluoro-4-iodophenyl)amino)phenyl)-1,17-dioxo-3-oxa-2,7,18-triazaicosan-20-oyl)-4-hydroxy-N—((S)-1-(4-(4-methylthiazol-5-yl)phenyl)ethyl)pyrrolidine-2-carboxamide] | 0.24 ± 0.055 µM | – | –
Cc1ncsc1-c1ccc([C@H](C)NC(=O)[C@@H]2C[C@@H](O)CN2C(=O)[C@@H](NC(=O)CCCCCCCCCCNCCCCONC(=O)c2ccc(F)c(F)c2Nc2ccc(I)cc2F)C(C)(C)C)cc1 [CPD-039, (2S,4R)-1-((S)-21-(tert-butyl)-1-(3,4-difluoro-2-((2-fluoro-4-iodophenyl)amino)phenyl)-1,19-dioxo-3-oxa-2,8,20-triazadocosan-22-oyl)-4-hydroxy-N—((S)-1-(4-(4-methylthiazol-5-yl)phenyl)ethyl)pyrrolidine-2-carboxamide] | 0.043 ± 0.001 µM | – | –
O=C1CCC(N2C(=O)c3ccc(NCCCNCCCONC(=O)c4ccc(F)c(F)c4Nc4ccc(I)cc4F)cc3C2=O)C(=O)N1 (centres unmarked) [CPD-041, N-(3-((3-((2-(2,6-dioxopiperidin-3-yl)-1,3-dioxoisoindolin-5-yl)amino)propyl)amino)propoxy)-3,4-difluoro-2-((2-fluoro-4-iodophenyl)amino)benzamide] | 0.5 ± 0.2 µM | not | –
O=C1CCC(N2C(=O)c3ccc(NCCCCNCCCONC(=O)c4ccc(F)c(F)c4Nc4ccc(I)cc4F)cc3C2=O)C(=O)N1 (centres unmarked) [CPD-042, N-(3-((4-((2-(2,6-dioxopiperidin-3-yl)-1,3-dioxoisoindolin-5-yl)amino)butyl)amino)propoxy)-3,4-difluoro-2-((2-fluoro-4-iodophenyl)amino)benzamide] | 1 ± 0.4 µM | – | –
O=C(NOC[C@H](O)CO)c1ccc(F)c(F)c1Nc1ccc(I)cc1F [PD0325901, reference compound] | – | – | not

Further lines, with some results ahead:

GI50 (HT-29 cells) | Compound | MEK1 and MEK2 protein levels (MEK1/2; [1]) | MEK1 and MEK2 protein levels (MEK1/2; HT-29 cells, 0.1, 0.3, or 1 μM)
0.5 ± 0.1 µM | O=C1CCC(N2C(=O)c3ccc(NCCCCCNCCCONC(=O)c4ccc(F)c(F)c4Nc4ccc(I)cc4F)cc3C2=O)C(=O)N1 (centres unmarked) [CPD-043, N-(3-((5-((2-(2,6-dioxopiperidin-3-yl)-1,3-dioxoisoindolin-5-yl)amino)pentyl)amino)propoxy)-3,4-difluoro-2-((2-fluoro-4-iodophenyl)amino)benzamide] | significantly degraded | –
1.1 ± 0.5 µM | O=C1CCC(N2C(=O)c3ccc(NCCCCCCNCCCONC(=O)c4ccc(F)c(F)c4Nc4ccc(I)cc4F)cc3C2=O)C(=O)N1 (centres unmarked) [CPD-044, N-(3-((6-((2-(2,6-dioxopiperidin-3-yl)-1,3-dioxoisoindolin-5-yl)amino)hexyl)amino)propoxy)-3,4-difluoro-2-((2-fluoro-4-iodophenyl)amino)benzamide] | – | –
0.5 ± 0.2 µM | O=C1CCC(N2C(=O)c3ccc(NCCCCCCCNCCCONC(=O)c4ccc(F)c(F)c4Nc4ccc(I)cc4F)cc3C2=O)C(=O)N1 (centres unmarked) [CPD-045, N-(3-((7-((2-(2,6-dioxopiperidin-3-yl)-1,3-dioxoisoindolin-5-yl)amino)heptyl)amino)propoxy)-3,4-difluoro-2-((2-fluoro-4-iodophenyl)amino)benzamide] | significantly degraded | –
0.3 ± 0.1 µM | O=C1CCC(N2C(=O)c3ccc(NCCCCCCCCNCCCONC(=O)c4ccc(F)c(F)c4Nc4ccc(I)cc4F)cc3C2=O)C(=O)N1 (centres unmarked) [CPD-046, N-(3-((8-((2-(2,6-dioxopiperidin-3-yl)-1,3-dioxoisoindolin-5-yl)amino)octyl)amino)propoxy)-3,4-difluoro-2-((2-fluoro-4-iodophenyl)amino)benzamide] | significantly degraded | –
1.4 ± 0.7 µM | O=C1CCC(N2C(=O)c3ccc(NCCOCCNCCCONC(=O)c4ccc(F)c(F)c4Nc4ccc(I)cc4F)cc3C2=O)C(=O)N1 (centres unmarked) [CPD-047, N-(3-((2-(2-((2-(2,6-dioxopiperidin-3-yl)-1,3-dioxoisoindolin-5-yl)amino)ethoxy)ethyl)amino)propoxy)-3,4-difluoro-2-((2-fluoro-4-iodophenyl)amino)benzamide] | – | –
1.1 ± 0.3 µM | O=C1CCC(N2C(=O)c3ccc(NCCOCCOCCNCCCONC(=O)c4ccc(F)c(F)c4Nc4ccc(I)cc4F)cc3C2=O)C(=O)N1 (centres unmarked) [CPD-048, N-(3-((2-(2-(2-((2-(2,6-dioxopiperidin-3-yl)-1,3-dioxoisoindolin-5-yl)amino)ethoxy)ethoxy)ethyl)amino)propoxy)-3,4-difluoro-2-((2-fluoro-4-iodophenyl)amino)benzamide] | – | –
1.5 ± 0.5 µM | O=C1CCC(N2C(=O)c3ccc(NCCOCCOCCOCCNCCCONC(=O)c4ccc(F)c(F)c4Nc4ccc(I)cc4F)cc3C2=O)C(=O)N1 (centres unmarked) [CPD-049, N-((1-((2-(2,6-dioxopiperidin-3-yl)-1,3-dioxoisoindolin-5-yl)amino)-3,6,9-trioxa-12-azapentadecan-15-yl)oxy)-3,4-difluoro-2-((2-fluoro-4-iodophenyl)amino)benzamide] | – | –
0.5 ± 0.06 µM | O=C1CCC(N2C(=O)c3ccc(NCCOCCOCCOCCOCCNCCCONC(=O)c4ccc(F)c(F)c4Nc4ccc(I)cc4F)cc3C2=O)C(=O)N1 (centres unmarked) [CPD-050, N-((1-((2-(2,6-dioxopiperidin-3-yl)-1,3-dioxoisoindolin-5-yl)amino)-3,6,9,12-tetraoxa-15-azaoctadecan-18-yl)oxy)-3,4-difluoro-2-((2-fluoro-4-iodophenyl)amino)benzamide] | significantly degraded | –
